Test results published in paper PMC9822434, “Estradiol-Based Salicylaldehyde (Thio)Semicarbazones and Their Copper Complexes with Anticancer, Antibacterial and Antioxidant Activities” (Molecules, 2022).
Values after ≈ are worked out from the molar mass of the structure shown.

Experiments:
physchem = type: physicochemical
Description: An Orion 710A pH-meter equipped with a Metrohm combined electrode (type 6.0234.100) and a Metrohm 665 Dosimat burette were used for the UV–vis titrations at 25.0 ± 0.1 °C. Ionic strength of 0.10 M (KCl) was used to keep the activity coefficients constant. The titrations were performed with carbonate-free KOH solution of known concentration (0.10 M) with 30% (v/v) DMSO content. […] The average water ionization constant (pKw) is 14.54 ± 0.05 in the 30% (v/v) DMSO/H2O mixture. Argon was always passed over the solutions during the titrations. An Agilent Cary 8454 diode array spectrophotometer was used to record the UV–vis spectra at an interval of 200–800 nm. The path length was 2 cm. Spectrophotometric titrations were performed using a 0.1 M KOH titrant solution with 30% (v/v) DMSO on samples with 30% (v/v) DMSO containing HCl, KCl and the ligand at 20 μM concentration in the pH range 2.0–12.5 in the absence or in the presence of 1 or 0.5 equiv. Cu(II) ions. Proton dissociation constants (Ka) of the TSC ligands, the overall stability constants (β) of the Cu(II) complexes and the UV–vis spectra of the individual species were calculated by the computer program PSEQUAD [41] as was done in our previous works.

[1] = type: physicochemical
Outline: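 UV–vis pH-metric titrations at 25.0 ± 0.1 °C, I = 0.10 M KCl, 30% (v/v) DMSO/H2O under argon; ligand 20 μM, pH 2.0–12.5, alone or with 1 or 0.5 equiv. Cu(II). Spectra 200–800 nm, 2 cm path; pKa, overall stability constants (β) and species spectra fitted with PSEQUAD.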

[2] = direct redox reaction of the Cu(II) complexes with GSH (UV–vis, anaerobic); type: physicochemical; conditions: Cu(II) complex (25 µM) of the named ligand with GSH (1.25 mM), pH 7.4, anaerobic, 30% (v/v) DMSO/H2O, 25.0 °C
Outline: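 Complexes mixed with GSH or ascorbic acid at 25.0 ± 0.1 °C, pH 7.40 (10 mM HEPES, 0.1 M KCl) in a sealed tandem cuvette, both compartments argon-deoxygenated 10 min before mixing. UV–vis absorbance followed at complex λmax until stable; single-exponential fit, kobs taken as slope of ln(A/A0) versus t.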

[3] = DPPH free radical scavenging assay
Outline: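 DPPH at 50 µM final mixed with compound (5–50 µM final) in ethanol at 25.0 ± 0.1 °C in tandem cuvette, read spectrophotometrically. Antioxidant activity percentage, IC50 (concentration reducing 50% of DPPH) and Trolox equivalent capacity derived; Trolox as positive control.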

E. faecalis ATCC 29212 = assay: MIC determination; type: cell-based, Enterococcus faecalis; conditions: Enterococcus faecalis, ATCC29212; Gram-positive E. faecalis ATCC 29212; Mueller Hinton Broth
Outline: (§1)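 Broth microdilution in Mueller Hinton Broth, two-fold serial dilutions starting at 100 µM compound (from 10 mM stocks in 90% DMSO). Each well inoculated with a 10^−4 dilution of overnight culture. MIC read per prior lab method.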

S. aureus ATCC 25928 = assay: MIC determination; type: cell-based, Staphylococcus aureus; conditions: Gram-positive S. aureus ATCC 25928, Mueller Hinton Broth
Outline: as §1

[4] = test system: A549, MCF-7, MCF-7 KCR and DU-145 cells; assay: γH2AX immunostaining (DNA double-strand breaks); type: cell-based, human; conditions: 20 µM, 3 h
Description: In order to determine the degree of DNA damage induced by the treatments, DNA double-strand breaks were visualized by γH2AX immunostaining. For this, 1 × 10^5 cells/well were seeded onto coverslips in 24-well plates. […] Then, cells were fixed with 4% formaldehyde (Molar Chemicals, Halásztelek, Hungary), permeabilized with 0.3% Triton-X-100 (Calbiochem, Merck Millipore, Darmstadt, Germany) and were blocked using 5% bovine serum albumin (BSA) (Sigma-Aldrich, St. Louis, MO, USA). Then, the samples were incubated with anti-γH2AX antibody (Thermo Fisher Scientific, Waltham, MA, USA) in 1:300 dilution followed by Alexa 488 fluorophore-conjugated goat anti-mouse secondary antibody (Abcam, Cambridge, UK) in 1:600 dilution. The fluorescence intensity of the stained samples was detected by an Olympus FV10i confocal microscope.

[5] = Cu(II) complex of the named ligand, 30% (v/v) DMSO/H2O, T = 25.0 °C, I = 0.1 M (KCl)

C[C@]12CC[C@@H]3c4cc(C=NNC(N)=S)c(O)cc4CC[C@H]3[C@@H]1CCC2O (stereo partly shown) [estradiol-TSC, 2-((3,17 Dihydroxy-estra-1,3,5(10)-triene-2-yl)methylene)Hydrazine-1-carbothioamide]
pKa (physchem): 9.23 ± 0.03 | pKa [CuL]+ [1]: 3.95 | logβ [CuLH−1] [1, 5]: 9.84 ± 0.03 | logβ [CuL]+ [1, 5]: 13.79 ± 0.03 | pCu5.0 ([1]; calculated at pH 5.0, cCu(II) = 20 µM, cligand = 20 µM): 7.8 | pCu6.0 ([1]; estimated at pH 6.0, cCu(II) = 20 µM, cligand = 20 µM): 9.3 | pCu7.4 ([1]; estimated at pH 7.4, cCu(II) = 20 µM, cligand = 20 µM): 12.1 | kobs [2]: 0.07 ± 0.03 min⁻¹ | TEAC (Trolox equivalent antioxidant capacity) ([3]; DPPH assay in ethanol, 25 °C): 0.8 | % Scavenging Effect ([3]; DPPH:compound = 1:1 ratio after 30 min, ethanol, 25 °C): 72.0% | IC50 ([3]; in ethanol, T = 25 °C, cDPPH = 50 µM, ccompound = 5−50 µM): 14.6 µM | MIC (E. faecalis ATCC 29212): > 100 µM | MIC (S. aureus ATCC 25928): 25 µM (≈ 9.34 µg/mL) | MIC (S. aureus ATCC 25928; Staphylococcus aureus, ATCC25928): 25 µM (≈ 9.34 µg/mL) | DNA double-strand breaks (γH2AX) vs untreated control cells [4]: None of these treatments caused a higher degree of DNA damage | melting point: 229 to 231 °C
